{"source": "patent US9271991B2", "about": "“Trimegestone (TMG) for treatment of preterm birth” (Dignity Health, priority 2010, dated 2016)", "key": {"[1]": {"biological_target": "T1, estrogen receptor (Homo sapiens, UniProt P03372)", "T1 sequence (P03372 1-595)": "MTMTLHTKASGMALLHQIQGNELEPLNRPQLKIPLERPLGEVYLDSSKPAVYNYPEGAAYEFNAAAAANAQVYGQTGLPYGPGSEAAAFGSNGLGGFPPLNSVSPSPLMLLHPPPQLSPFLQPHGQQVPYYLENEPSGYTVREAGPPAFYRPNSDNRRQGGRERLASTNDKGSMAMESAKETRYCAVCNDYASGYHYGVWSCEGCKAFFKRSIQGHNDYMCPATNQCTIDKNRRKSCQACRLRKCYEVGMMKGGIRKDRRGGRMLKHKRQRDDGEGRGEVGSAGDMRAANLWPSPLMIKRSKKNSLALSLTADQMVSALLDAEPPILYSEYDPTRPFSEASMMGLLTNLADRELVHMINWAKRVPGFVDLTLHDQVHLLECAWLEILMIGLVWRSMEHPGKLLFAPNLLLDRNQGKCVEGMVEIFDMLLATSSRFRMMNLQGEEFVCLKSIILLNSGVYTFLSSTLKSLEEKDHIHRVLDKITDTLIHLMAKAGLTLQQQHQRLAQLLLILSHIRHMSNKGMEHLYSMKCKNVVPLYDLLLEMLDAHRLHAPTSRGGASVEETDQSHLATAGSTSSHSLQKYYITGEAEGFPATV", "details": "cited from earlier work"}, "[2]": {"test_system": "pregnant rats (term delivery)", "experiment": "Delay of term delivery in pregnant rats", "type": "in vivo, Sprague-Dawley rats", "excerpt": "Timed-pregnant Sprague-Dawley rats (200-250 g) from Charles-River Laboratories (Wilmington, Mass., USA) were delivered to our animal care facilities on day 15 of gestation (day 1 being the day when a sperm plug was observed). The animals were housed separately, with free access to food and water and maintained on a constant 12-hour light-dark cycle. Control pregnant rats were spontaneously delivering on day 22 of gestation. The animals were randomly allocated into groups and sacrificed by carbon dioxide inhalation on day 5 postpartum or on day 25 of gestation in the groups with delayed delivery.\nPregnant rats (N=6 per group) were treated, when not otherwise mentioned, from day 20 of gestation until delivery. Single daily treatments were performed at 8 am and twice a day treatments at 8 am and 8 pm. Treatment began daily on day 20 of gestation with vehicles or: a) Topical P4 at various doses (4-30 mg/day, vehicle (v)=fish oil) or topical TMG ([…], v=fish oil; b) Subcutaneous (s.c.) P4 (0.5-4 mg/day, v=sesame oil) or s.c. TMG (0.5-2 mg/day, v=benzyl benzoate (BB) and castor oil (CO), 1:4). Delivery times were observed.\nSubcutaneous treatments. All daily injections were by the subcutaneous route (s.c) in […] for the P4 treatments and benzyl benzoate (BB, 1 part): castor oil (CO, 4 parts) for the TMG group. P4 and TMG had dose ranges of 0.5 mg-4 mg per day and 0.5 mg-2 mg per day, respectively. Vehicles only are used in the control groups.\nTopical treatments. Topical P4 and TMG (in fish oil and benzyl benzoate:castor oil (1:4), respectively) treatments were applied to the shaved back of the rat twice a day For topical treatments of P4 and TMG, dose range from 2 mg-30 mg per day and 0.005 to 0.5 mg per day, respectively.\nTimes of delivery of controls and treatment groups were determined as hours after 8 a.m. on day 22 of gestation. […] Delays in delivery less than 80 hours were calculated as less than 100% inhibition. The expulsion of a single pup was noted as delivery. Control groups spontaneously delivered on day 22 of gestation.\nThe Student's t test was used to compare the treatment groups with its specific control groups to determine the differences in delivery times. A 2-tailed probability value of P<0.05 was considered statistically significant."}, "[3]": {"biological_target": "T2, androgen receptor (Homo sapiens, UniProt P10275)", "T2 sequence (P10275 1-920)": "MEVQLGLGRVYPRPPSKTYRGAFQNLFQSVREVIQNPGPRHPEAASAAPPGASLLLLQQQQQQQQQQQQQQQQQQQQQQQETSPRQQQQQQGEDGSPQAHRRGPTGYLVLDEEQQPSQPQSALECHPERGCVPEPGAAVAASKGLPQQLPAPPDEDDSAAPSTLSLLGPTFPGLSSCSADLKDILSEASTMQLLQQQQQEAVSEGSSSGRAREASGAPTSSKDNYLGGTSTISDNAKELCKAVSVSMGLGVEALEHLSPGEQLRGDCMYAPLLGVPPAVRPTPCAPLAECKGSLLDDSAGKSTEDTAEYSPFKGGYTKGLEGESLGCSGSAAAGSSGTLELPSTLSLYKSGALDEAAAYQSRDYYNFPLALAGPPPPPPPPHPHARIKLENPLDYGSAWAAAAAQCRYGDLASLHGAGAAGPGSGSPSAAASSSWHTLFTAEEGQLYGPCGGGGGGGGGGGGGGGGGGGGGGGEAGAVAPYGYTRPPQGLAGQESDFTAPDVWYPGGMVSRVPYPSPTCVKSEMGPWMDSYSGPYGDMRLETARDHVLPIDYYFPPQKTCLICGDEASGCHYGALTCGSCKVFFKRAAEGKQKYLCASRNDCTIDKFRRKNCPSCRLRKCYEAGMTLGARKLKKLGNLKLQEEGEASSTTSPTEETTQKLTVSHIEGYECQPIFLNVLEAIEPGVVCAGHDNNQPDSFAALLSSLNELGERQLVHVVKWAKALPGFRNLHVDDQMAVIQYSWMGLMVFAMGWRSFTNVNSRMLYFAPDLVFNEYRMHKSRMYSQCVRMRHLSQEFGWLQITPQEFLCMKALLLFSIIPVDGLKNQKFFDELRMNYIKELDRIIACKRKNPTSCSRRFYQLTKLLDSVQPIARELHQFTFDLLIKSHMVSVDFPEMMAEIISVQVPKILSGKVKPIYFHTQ", "details": "cited from earlier work"}, "[4]": {"details": "pregnant rats, s.c. single daily treatment from day 20 of gestation"}}, "data": [{"smiles": "C[C@H](O)C(=O)[C@@]1(C)CC[C@H]2[C@@H]3CCC4=CC(=O)CCC4=C3CC[C@@]21C", "note": "[TMG, trimegestone]", "values": [{"measurement": "affinity for the estrogen receptor", "setting": "[1]", "value": "no measurable affinity"}, {"measurement": "dose for complete block of delivery (80 hour delay, 100 percent inhibition), subcutaneous", "setting": "[2]; [4]", "value": 0.5, "unit": "mg"}, {"measurement": "dose for complete block of delivery, subcutaneous", "setting": "[2]; [4]", "value": 0.5, "unit": "mg/day"}, {"measurement": "lower dose for complete block of term delivery compared to P4, subcutaneous", "setting": "[2]; pregnant rats, s.c., 0.5 mg TMG vs. 2 mg P4, P<0.05", "value": "ca. 4 ×"}, {"measurement": "dose for complete block of delivery, topical", "setting": "[2]; pregnant rats, topical twice a day from day 20 of gestation", "value": 0.1, "unit": "mg/day"}, {"measurement": "lower dose for complete block of term delivery compared to P4, topically", "setting": "[2]; pregnant rats, topical, 0.5 mg TMG vs. 15 mg P4, P<0.05", "value": "ca. 30 ×"}, {"measurement": "potency in delaying delivery in rats compared to P4", "setting": "[2]; topical and parenteral administration", "value": "more potent than P4"}, {"measurement": "affinity to the androgen receptor", "setting": "[3]", "value": "low affinity"}]}]}
